Results published in patent US20260125360A1, “HERBICIDAL IMIDAZOLE COMPOUNDS” (SYNGENTA CROP PROTECTION AG, priority 2022, published 2026).

How the values were obtained:
Format in all cases: in vivo
Details in all cases: 250 g/ha, evaluated after 13 days
[1] = system: Amaranthus palmeri (AMAPA); assay: Pre-emergence herbicide glasshouse test
Description: (§1) Seeds of a variety of test species are sown in standard soil in pots Amaranthus palmeri (AMAPA), Amaranthus retoflexus (AMARE), Echinochloa crus-galli (ECHCG), Ipomoea hederacea (IPOHE)). After cultivation for one day (pre-emergence) or after 8 days cultivation (post-emergence) under controlled conditions in a glasshouse (at 24/16° C., day/night; 14 hours light; 65% humidity), the plants are sprayed with an aqueous spray solution derived from the formulation of the technical active ingredient in acetone/water (50:50) solution containing 0.5% Tween 20 (polyoxyethelyene sorbitan monolaurate, CAS RN 9005-64-5). Compounds are applied at 250 g/ha unless otherwise stated. The test plants are then grown in a glasshouse under controlled conditions in a glasshouse (at 24/16° C., day/night; 14 hours light; 65% humidity) and watered twice daily. After 13 days for pre and post-emergence, the test is evaluated for the percentage damage caused to the plant. The biological activities are shown in the following table on a five-point scale (5=81-100%; 4=61-80%; 3=41-60%; 2=21-40%; 1=0-20%).

[2] = system: Ipomoea hederacea (IPOHE); assay: Pre-emergence herbicide glasshouse test
Description: as §1

[3] = system: Echinochloa crus-galli (ECHCG); assay: Pre-emergence herbicide glasshouse test
Description: as §1

[4] = system: Amaranthus retoflexus (AMARE); assay: Pre-emergence herbicide glasshouse test
Description: as §1

[5] = system: Amaranthus palmeri (AMAPA); assay: Post-emergence herbicide glasshouse test
Description: as §1

[6] = system: Ipomoea hederacea (IPOHE); assay: Post-emergence herbicide glasshouse test
Description: as §1

[7] = system: Echinochloa crus-galli (ECHCG); assay: Post-emergence herbicide glasshouse test
Description: as §1

[8] = system: Amaranthus retoflexus (AMARE); assay: Post-emergence herbicide glasshouse test
Description: as §1

Row | SMILES | percentage damage caused to the plant, AMAPA (five-point scale) [1] | percentage damage caused to the plant, IPOHE (five-point scale) [2] | percentage damage caused to the plant, ECHCG (five-point scale) [3] | percentage damage caused to the plant, AMARE (five-point scale) [4] | percentage damage caused to the plant, AMAPA (five-point scale) [5] | percentage damage caused to the plant, IPOHE (five-point scale) [6] | percentage damage caused to the plant, ECHCG (five-point scale) [7] | percentage damage caused to the plant, AMARE (five-point scale) [8]
1 | N#Cc1ccc(Cn2cc(C(F)(F)F)nc2-c2ccc(C(F)(F)F)cc2)s1 [Compound 1.001] | 5 (5=81-100%) | 2 (2=21-40%) | 2 (2=21-40%) | 4 (4=61-80%) | 4 (4=61-80%) | 3 (3=41-60%) | 2 (2=21-40%) | 4 (4=61-80%)
2 | FC(F)(F)c1ccc(-c2nc(C(F)(F)F)cn2Cc2nsc(Cl)n2)cc1 [Compound 1.002] | 1 (1=0-20%) | 1 (1=0-20%) | 1 (1=0-20%) |  | 1 (1=0-20%) | 3 (3=41-60%) | 1 (1=0-20%) | 2 (2=21-40%)
3 | Cn1cnc(Cn2cc(C(F)(F)F)nc2-c2ccc(C(F)(F)F)cc2)n1 [Compound 1.003, 1-methyl-3-[[4-(trifluoromethyl)-2-[4-(trifluoromethyl)phenyl]imidazol-1-yl]methyl]-1,2,4-triazole] | 5 (5=81-100%) | 5 (5=81-100%) | 5 (5=81-100%) | 5 (5=81-100%) | 4 (4=61-80%) | 5 (5=81-100%) | 4 (4=61-80%) | 4 (4=61-80%)
4 | CC(C)(C)c1nc(Cn2cc(C(F)(F)F)nc2-c2ccc(C(F)(F)F)cc2)no1 [Compound 1.004] | 1 (1=0-20%) | 1 (1=0-20%) | 1 (1=0-20%) | 1 (1=0-20%) | 1 (1=0-20%) | 2 (2=21-40%) | 1 (1=0-20%) | 1 (1=0-20%)
5 | Cc1noc(C)c1Cn1cc(C(F)(F)F)nc1-c1ccc(C(F)(F)F)cc1 [Compound 1.005] | 5 (5=81-100%) | 1 (1=0-20%) | 1 (1=0-20%) | 5 (5=81-100%) | 1 (1=0-20%) | 1 (1=0-20%) | 1 (1=0-20%) | 1 (1=0-20%)
6 | Cc1nonc1Cn1cc(C(F)(F)F)nc1-c1ccc(C(F)(F)F)cc1 [Compound 1.006] | 1 (1=0-20%) | 1 (1=0-20%) | 1 (1=0-20%) | 1 (1=0-20%) | 1 (1=0-20%) | 1 (1=0-20%) | 1 (1=0-20%) | 1 (1=0-20%)
7 | Cc1nnc(Cn2cc(C(F)(F)F)nc2-c2ccc(C(F)(F)F)cc2)s1 [Compound 1.007] | 5 (5=81-100%) | 5 (5=81-100%) | 5 (5=81-100%) | 5 (5=81-100%) | 5 (5=81-100%) | 5 (5=81-100%) | 5 (5=81-100%) | 5 (5=81-100%)
8 | Cc1noc(Cn2cc(C(F)(F)F)nc2-c2ccc(C(F)(F)F)cc2)n1 [Compound 1.008] | 5 (5=81-100%) | 3 (3=41-60%) | 1 (1=0-20%) | 5 (5=81-100%) | 4 (4=61-80%) | 4 (4=61-80%) | 2 (2=21-40%) | 4 (4=61-80%)
9 | FC(F)(F)c1ccc(-c2nc(C(F)(F)F)cn2Cc2ccno2)cc1 [Compound 1.009] | 1 (1=0-20%) | 1 (1=0-20%) | 1 (1=0-20%) | 1 (1=0-20%) | 1 (1=0-20%) | 3 (3=41-60%) | 1 (1=0-20%) | 2 (2=21-40%)
10 | Cc1nc(Cn2cc(C(F)(F)F)nc2-c2ccc(C(F)(F)F)cc2)cs1 [Compound 1.010] | 2 (2=21-40%) | 2 (2=21-40%) | 1 (1=0-20%) | 5 (5=81-100%) | 1 (1=0-20%) | 3 (3=41-60%) | 1 (1=0-20%) | 2 (2=21-40%)
11 | COCCc1noc(Cn2cc(C(F)(F)F)nc2-c2ccc(C(F)(F)F)cc2)n1 [Compound 1.011] | 1 (1=0-20%) | 1 (1=0-20%) | 1 (1=0-20%) | 1 (1=0-20%) | 1 (1=0-20%) | 1 (1=0-20%) | 1 (1=0-20%) | 1 (1=0-20%)
12 | Cc1nc(Cn2cc(C(F)(F)F)nc2-c2ccc(C(F)(F)F)cc2)co1 [Compound 1.012] |  | 1 (1=0-20%) | 1 (1=0-20%) | 2 (2=21-40%) | 1 (1=0-20%) | 3 (3=41-60%) | 1 (1=0-20%) | 1 (1=0-20%)
13 | Cc1cc(Cn2cc(C(F)(F)F)nc2-c2ccc(C(F)(F)F)cc2)no1 [Compound 1.013] | 5 (5=81-100%) | 5 (5=81-100%) | 5 (5=81-100%) | 5 (5=81-100%) | 5 (5=81-100%) | 4 (4=61-80%) | 4 (4=61-80%) | 4 (4=61-80%)
